Laboratory results published in US8436039B2, “Inhibitors of the ATB(0,+) transporter and uses thereof” (Georgia Health Sciences University Research Institute, Inc., priority 2008, dated 2013).

Experiments:
mouse ATB^0,+ [1] = target: T1, mouse ATB^0,+ (Mus musculus, UniProt Q9JMA9); assay: Inhibition of ATB^0,+-mediated glycine uptake in HRPE cells expressing cloned mouse ATB^0,+; assay type: cell-based; settings: for inhibition of ATB^0,+-specific glycine uptake: glycine 10 μM, inhibitor 1 mM, 30 min, NaCl, HRPE cells
T1 sequence (Q9JMA9 1-638): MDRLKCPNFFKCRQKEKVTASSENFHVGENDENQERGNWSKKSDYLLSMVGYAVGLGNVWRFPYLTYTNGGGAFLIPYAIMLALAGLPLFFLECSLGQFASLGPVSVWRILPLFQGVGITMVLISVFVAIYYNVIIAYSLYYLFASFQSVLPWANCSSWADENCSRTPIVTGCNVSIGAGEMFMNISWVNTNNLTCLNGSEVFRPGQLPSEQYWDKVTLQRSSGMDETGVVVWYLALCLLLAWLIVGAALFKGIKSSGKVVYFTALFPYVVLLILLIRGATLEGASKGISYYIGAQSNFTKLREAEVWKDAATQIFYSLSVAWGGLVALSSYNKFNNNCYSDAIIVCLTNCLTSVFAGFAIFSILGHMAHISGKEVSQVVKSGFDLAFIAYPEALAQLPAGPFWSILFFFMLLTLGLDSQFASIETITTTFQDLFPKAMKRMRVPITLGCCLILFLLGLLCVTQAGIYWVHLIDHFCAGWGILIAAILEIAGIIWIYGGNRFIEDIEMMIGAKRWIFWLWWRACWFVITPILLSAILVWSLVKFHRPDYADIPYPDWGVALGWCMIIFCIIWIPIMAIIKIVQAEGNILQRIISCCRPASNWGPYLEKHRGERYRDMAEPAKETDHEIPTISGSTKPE

mouse ATB^0,+ [2] = target: T1, mouse ATB^0,+; assay: Substrate-induced inward currents in X. laevis oocytes expressing mouse ATB^0,+ (two-microelectrode voltage clamp); assay type: cell-based; settings: for Michaelis constant (K0.5) of substrate-induced currents: saturation kinetics; for Michaelis constant (K0.5) of substrate-induced currents / inward currents induced in ATB^0,+-expressing oocytes: NaCl, voltage clamp; for inward currents induced in ATB^0,+-expressing oocytes: 2.5 mM
Description: Capped cRNA from the cloned mouse or human ATB^0,+ cDNA was synthesized using the mMESSAGE mMACHTNE kit (Ambion, Austin, Tex., U.S.A.). Mature oocytes (stage IV or V) from X. laevis were injected with 50 ng of cRNA. Uninjected oocytes served as controls. The oocytes were used for electrophysiological studies 3-6 days after cRNA injection. Electrophysiological studies were performed by the two-microelectrode voltage-clamp method (Nakanishi et al., 2001, J. Physiol. 532, 297-304). Oocytes were superfused with an NaCl-containing buffer (100 mM NaCl, 2 mM KCl, 1 mM MgCl2, 1 mM CaCl2, 3 mM Hepes, 3 mM Mes and 3 mM Tris, pH 7.5), followed by the same buffer containing tryptophan derivatives. The membrane potential was clamped at −50 mV. The differences between the steady-state currents measured in the presence and absence of substrates were considered as the substrate-induced currents. In the analysis of the saturation kinetics of substrate-induced currents, the kinetic parameter K0.5 (i.e. substrate concentration necessary for induction of half-maximal current) was calculated by fitting the values of the substrate-induced currents to the Michaelis-Menten equation. The Na^+ and Cl^− activation kinetics of substrate-induced currents were analysed by measuring the substrate-specific currents in the presence of increasing concentrations of Na^+ (concentration of Cl^− kept constant at 100 mM) or in the presence of increasing concentrations of Cl^− (concentration of Na^+ kept constant at 100 mM). In these experiments, the composition of the superfusion buffer was modified to contain 2 mM potassium gluconate, 1 mM MgSO4 and 1 mM calcium gluconate in place of KCl, MgCl2 and CaCl2 respectively. The data from these experiments were analysed by the Hill equation to determine the Hill coefficient (h; number of Na^+ and Cl^− ions involved in the activation process). The kinetic parameters were determined by using the commercially available computer program Sigma Plot, version 6.0 (SPSS, Chicago, Ill., U.S.A.). Uninjected oocytes were used to determine the currents induced by tryptophan derivatives due to entry via transporters that may be constitutively expressed in the oocytes. At a concentration of 2.5 mM, the currents induced by these compounds were in the range of 0-3 nA in uninjected oocytes. These currents were less than 2% of the corresponding currents induced in ATB^0,+ cRNA-injected oocytes. Therefore the endogenous currents associated with the constitutively expressed transporters were not considered in the analysis of kinetic parameters of ATB^0,+ transport activity.
The above studies with the mammalian cell expression system have focused on the interaction of 1-methyltryptophan and other tryptophan derivatives with ATB^0,+ by examining the effects of these compounds on the transporter-mediated glycine uptake. These studies have shown convincingly that 1-methyltryptophan interacts with ATB^0,+, with the L-isomer having much higher affinity for the transporter than the D-isomer. However, these studies have not shown whether or not 1-methyltryptophan is actually a transportable substrate for ATB^0,+. It is possible that 1-methyltryptophan inhibits ATB^0,+-mediated glycine uptake simply by blocking the interaction of glycine with the substrate-binding site of the transporter, rather than by actually competing with glycine for the transport process. […] We wanted to know whether 1-methyltryptophan can actually be transported by ATB^0,+. For this, we used the X. laevis oocyte expression system. Since the transport process mediated by ATB^0,+ is electrogenic, exposure of ATB^0,+-expressing oocytes to transportable substrates will induce an inward current in an Na^+- and Cl^−-dependent manner. Exposure of the same oocytes to blockers will interfere with currents induced by transportable substrates, but will not induce currents by themselves. […]

[3] = 1 mM substrate, Cl^- fixed at 100 mM
[4] = 1 mM substrate, Na^+ fixed at 100 mM

## Cn1cc(C[C@H](N)C(=O)O)c2ccccc21 [1-methyl-L-tryptophan]
Mouse ATB^0,+ [1]
  IC50: 23 ± 5 µM
Mouse ATB^0,+ [1]; 1-methyl-L-tryptophan versus 1-methyl-D-tryptophan
  potency of L-isomer relative to D-isomer as inhibitor of ATB^0,+-mediated glycine uptake: at least 35 fold
Mouse ATB^0,+ [2]; [3]
  Hill coefficient (h), Na^+-activation kinetics of induced currents: 1.9±0.2
  Michaelis constant (K0.5) for Na^+: 27 ± 2 mM
Mouse ATB^0,+ [2]; [4]
  Hill coefficient, Cl^- -activation kinetics of induced currents: 1.2±0.2
  Michaelis constant for Cl^-: 2.1 ± 0.3 mM
Mouse ATB^0,+ [2]
  Michaelis constant (K0.5) of substrate-induced currents: 93 ± 16 µM

## Cn1cc(C[C@@H](N)C(=O)O)c2ccccc21 [1-methyl-D-tryptophan]
Mouse ATB^0,+ [1]
  IC50: 780 ± 225 µM
Mouse ATB^0,+ [2]
  Michaelis constant (K0.5) of substrate-induced currents: 462 ± 78 µM

## Cn1cc(CC(N)C(=O)O)c2ccccc21 (racemic) [1-methyl-DL-tryptophan]
Mouse ATB^0,+ [1]
  inhibition of ATB^0,+-specific glycine uptake: inhibited
Mouse ATB^0,+ [2]
  inward currents induced in ATB^0,+-expressing oocytes: induced marked currents

## CC(N)(Cc1c[nH]c2ccccc12)C(=O)O (racemic) [α-methyl-DL-tryptophan]
Mouse ATB^0,+ [1]
  inhibition of ATB^0,+-specific glycine uptake: inhibited
Mouse ATB^0,+ [2]
  inward currents induced in ATB^0,+-expressing oocytes: failed to induce currents
